Test results as given in patent US4657898A, “N^6 -substituted adenosines and method of use” (Warner-Lambert Company, priority 1985, dated 1987).

Assays:
[1] = Mouse Activity and Screen Test Procedure (MAST): inhibition of locomotion (LI); assay type: in vivo, mouse (Swiss-Webster)
Method: Treatments are administered intraperitoneally one hour prior to testing. […] Compounds are dissolved or suspended in 0.2% Methocel. Control animals are injected with Methocel.
Immediately following the screen test, the final phase of testing is initiated by placing each group of three mice in one actophotometer (Life Sciences, 22, 1067-1076, 1978). The actophotometer consists of a cylindrical chamber whose center is occupied by another cylinder which contains the illumination for six photocells located on the perimeter of the chamber. Six light-beam interruptions equal one count. Locomotor activity is recorded by computer at ten minute intervals for 60 minutes.
The compounds are identified in the Examples.

[2] = Mouse Activity and Screen Test Procedure (MAST): screen test failure (ST); settings: lowest dose at which an A rating is achieved, screen test; i.p., mouse
Method: Nine unfasted Swiss-Webster male mice weighing 20-30 g are equally divided into three groups for each drug dose to be tested. That is, data for each dose level was generated by three separate groups of three mice each.
A minimum of three dose levels (10, 30, and 100 mg/kg) are tested for each drug. Treatments are administered intraperitoneally one hour prior to testing. All dosages are calculated as parent compound and given in volumes of 10 ml/kg. Compounds are dissolved or suspended in 0.2% Methocel. Control animals are injected with Methocel.
Testing: A two part testing procedure is started one hour postinjection. First, the screen test (ST) is performed (see Pharmac. Biochem. Behav. 6, 351-353, 1977). Briefly this test consists of placing mice on individual wire screens which are then rotated 180 degrees at the start of a 60 second observation period. The number of mice falling off the inverted screen is recorded.
Data: The data obtained from the screen test are expressed as percent of mice falling off the screen. Data derived from locomotor activity of drug treated mice are compared to the activity of vehicle treated animals and are expressed as percent inhibition of spontaneous locomotion. All percentages reported for inhibition of locomotion (LI) are based upon data accumulated for one hour. Both phases of testing are graded: A=60-100%; C=31-59%; and N=0-30%. An overall dose rating is obtained by the following criteria:
LAD refers to the lowest dose at which an A rating is achieved. […] The compounds are identified in the Examples.

[3] = Antihypertensive evaluation (AHP3), aortic blood pressure and heart rate in conscious rats; assay type: in vivo; settings: conscious rat
Description: […] EVALUATION (AHP3)
This test procedure is described in the following paragraphs.
A Method for the Direct Monitoring of Aortic Blood Pressure and Heart Rate from Conscious Rats
The continuous monitoring of pulsatile blood pressure (BP) from unrestrained conscious rats surgically equipped with polyethylene cannulas was accomplished by means of a computer assisted data capture scheme (CADCS). The basic elements of the methodology are the cannulation procedure and the CADCS.
Cannulation Procedure: Rats were anesthetized with Telazol (1:1 tiletamine HCl and zolazepam HCl); 20-40 mg/kg IM and the descending aorta exposed via a midline incision. Cannulas fabricated from polyethylene tubing were inserted into the aorta via an undersized puncture hole below the renal arteries. The puncture hole was made by a 23G disposable needle with a section of the aorta clamped off above and below the puncture site. The cannulas, consisting of a PE100 (0.86 mm ID) body and a PE50 (0.5mm ID) tip, were attached to a trocar, inserted through the psoas muscle, and passed subcutaneously along the midline of the back and externalized between the ears. The cannulas were anchored to the psoas muscle and between the scalulae (3-0 green braided suture). The midline incision was closed in two steps (muscle first, skin second) using continuous over-and over sutures (4-0 chronic). Each rat was then given penicillin 30,000 units subcutaneously (Penicillin G Procaine Sterile Suspension).
The rats were fitted with a harness-spring-swivel assembly designed to protect the cannula and to provide the rat relative freedom of movement. The harnesses were fabricated from nylon hook and loop tape cemented to a metal plate to which spring wires (18-8 stainless steel), were attached to brass swivels. Each polyethylene cannula was channeled through a spring and connected through a swivel to a pressure transducer (Model P23Gb; Statham Instruments; Hato Rey, Puerto Rico) and an infusion pump (Sage model 234-7; Orion Research, Cambridge, MA) by means of PE100 tubing. While on test, each rat received a continuous slow infusion of heparinized saline solution (approximately […] or 40 units of heparin per 24 hour period) to prevent clot formation. Additional "flushes" of the cannula with heparinized saline were carried out when the aortic pulse pressure (systolic minus diastolic) was less than 25 mm Hg.
CADCS: The pulsatile blood pressure and heart rate of each of 32 rats was monitored every minute by means of two in-laboratory microcomputers communicating directly with a data concentrator computer. The data were first stored on the data concentrator disk and then transferred to a magnetic tape for analysis and report generation by the main research computer. The overall scheme involved modulating the primary signal from the pressure transducer, generating the primary data set of the one-minute values for systolic, diastolic, and mean blood pressures and heart rate by the in-lab microcomputer and the storage, analysis, and report generation by the main reserach computer.
The transducers were connected to analog signal conditioning modules. The modules provided a regulated excitation voltage for the transducers, amplification as required to interface the microprocessors and an active low pass filter to compensate for the pressure wave form distortion produced by the flexible, fluid filled, narrow cannula. The distortion was 22-26 Hz and this provided a reliable estimate of both systolic and diastolic blood pressure.
The microcomputers (one for each of two groups of 16 rats) were connected to the input components through the module interface units, an analog-to-digital converter for the pressure wave form signal and the digital inputs for the dose and event marker switches. The microcomputer controlled the sequential acquisition of data from the modular interface units through an internal synchronous time-of-day clock/time base generator. […]

[4] = molecular target: T1, adenosine A2 receptor (Rattus norvegicus, UniProt P30543); assay: Adenosine Receptor Binding--A2 Receptor Affinity (RBA2), [3H]NECA; parameters: species or system rat (Sprague-Dawley or Long-Evans, striatum)
T1 construct: 5 mg original tissue weight of rat weight of rat striatal membranes; tissue Pel-Freez (Rogers, Ark.); host or cells: rat striatum, membranes (Sprague-Dawley; Long-Evans from Blue Spruce Farms gave essentially identical results)
Method: Adenosine Receptor Binding--A2 Receptor Affinity (RBA2)
Brains from 200-500 g mixed sex Sprague-Dawley rats were purchased from Pel-Freez (Rogers, Ark.). […] Brains were thawed and then kept on ice while the striata were dissected out. Striata were disrupted in 10 vol of ice-cold 50 mM Tris.HCl (pH 7.7 at 25° C., pH 8.26 at 5° C.) (Tris) for 30 seconds in a Polytron PT-10 (Brinkmann) at setting 5. The suspension was centrifuged at 50,000 xg for ten minutes, the supernatant discarded, the pellet resuspended in 10 vol ice-cold Tris as above, recentrifuged, resuspended at 1 g/5 ml, and stored in plastic vials at -70° C. […] When needed, tissue was thawed at room temperature, disrupted in a Polytron, and kept on ice until used. […]
Incubations were terminated by filtration through 2.4 cm GF/B filters under reduced pressure. […] Filters were put in scintillation vials, 8 ml of Formula 947 scintillation fluid added, and the vials left overnight, shaken, and counted in a liquid scintillation counter at 40% efficiency.
The IC50 was calculated by weighted nonlinear least squares curve-fitting to the mass-action equation. […]
Weighting factors were calculated under the assumption that the standard deviation was proportional to the predicted value of Y. Nonspecific binding was treated as a very large (infinite) concentration of drug in the computer analysis.

[5] = molecular target: T2, adenosine A1 receptor (Rattus norvegicus, UniProt P25099); assay: Adenosine Receptor Binding--A1 Receptor Affinity (RBA1), [3H]-CHA; parameters: species or system rat (male Long Evans)
T2 construct: Whole brain minus cerebellum and brainstem from male Long Evans rats; from tissue; host or cells: rat whole brain minus cerebellum and brainstem, membranes (male Long Evans)
T2 sequence (P25099 1-326): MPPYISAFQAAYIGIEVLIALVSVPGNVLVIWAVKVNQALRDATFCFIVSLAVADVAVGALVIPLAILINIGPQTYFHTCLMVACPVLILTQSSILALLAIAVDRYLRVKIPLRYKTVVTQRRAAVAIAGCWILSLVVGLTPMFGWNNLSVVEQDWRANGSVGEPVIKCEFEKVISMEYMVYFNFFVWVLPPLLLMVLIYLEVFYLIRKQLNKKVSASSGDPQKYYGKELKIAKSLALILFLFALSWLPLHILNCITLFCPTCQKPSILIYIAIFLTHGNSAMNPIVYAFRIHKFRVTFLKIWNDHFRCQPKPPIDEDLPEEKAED
Method: Adenosine Receptor Binding--A1 Receptor Affinity (RBA1)
Whole brain minus cerebellum and brainstem from male Long Evans rats (150-200 g) was homogenized in 30 volumes of ice-cold 0.05M Tris-HCl buffer pH 7.7 using a Brinkman Polytron PT-10, (setting number 6 for 20 seconds) and centrifuged for ten minutes at 20,000 xg (Sorvall RC-2), 4° C. The supernatant was discarded, and the pellet was resuspended and centrifuged as before. The pellet was resuspended in 20 ml Tris-HCl buffer containing two International Units/ml of adenosine deaminase (Sigma type III from calf intestinal mucosa), incubated at 37° C. for 30 minutes, then subsequently at 0° C. for ten minutes. […]
Tissue homogenate (10 mg/ml) was incubated in 0.05M Tris-HCl buffer pH 7.7 containing 1.0 nM [^3 H]-N^6 -cyclohexyladenosine (^3 H]-CHA) with or without test agents in triplicate for one hour at 25° C. […] The radio-labeled ligand retained on the filter was measured by liquid scintillation spectrophotometry after shaking the filters for one hour or longer on a mechanical shaker in 10 ml of Beckman Ready-Solv HP scintillation cocktail.
Nonspecific binding was defined as the binding which occurred in the presence of 1 mM theophylline. […] The Scatchard plot was calculated by linear regression of the line obtained by plotting the amount of radioligand bound [formula] […]

T1 sequence (P30543 whole entry): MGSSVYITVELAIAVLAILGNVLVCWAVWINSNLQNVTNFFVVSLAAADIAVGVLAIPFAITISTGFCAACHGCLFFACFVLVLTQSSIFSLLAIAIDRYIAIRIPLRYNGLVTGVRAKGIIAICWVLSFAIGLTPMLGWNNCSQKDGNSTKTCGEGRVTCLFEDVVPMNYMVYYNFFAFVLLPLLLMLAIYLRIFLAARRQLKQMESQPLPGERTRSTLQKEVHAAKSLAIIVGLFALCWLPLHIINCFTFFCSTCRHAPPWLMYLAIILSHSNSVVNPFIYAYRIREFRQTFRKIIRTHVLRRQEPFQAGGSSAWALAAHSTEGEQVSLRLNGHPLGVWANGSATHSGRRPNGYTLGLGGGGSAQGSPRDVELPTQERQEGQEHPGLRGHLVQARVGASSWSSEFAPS

SMILES	Inhibition of mouse locomotor activity ([1]; 10 mg/kg i.p.)	Inhibition of mouse locomotor activity ([1]; 30 mg/kg i.p.)	Inhibition of mouse locomotor activity ([1]; 100 mg/kg i.p.)	MAST ST LAD [2]	HR.uparw. (change in heart rate) ([3]; 1 mg/kg)	Mμ.c..dwnarw. (change in MAP) ([3]; 1 mg/kg)	HR.uparw. (change in heart rate) ([3]; 3 mg/kg)	Mμ.c..dwnarw. (change in MAP) ([3]; 3 mg/kg)	HR.uparw. (change in heart rate) ([3]; 10 mg/kg)	Mμ.c..dwnarw. (change in MAP) ([3]; 10 mg/kg)	HR.uparw. (change in heart rate) ([3]; 30 mg/kg)	Mμ.c..dwnarw. (change in MAP) ([3]; 30 mg/kg)	IC50 [4]	IC50 [5]
OC[C@H]1O[C@@H](n2cnc3c(NCC(c4ccccc4)c4ccccc4)ncnc32)[C@H](O)[C@@H]1O [Example 1, N^6-(2,2-Diphenylethyl)adenosine]	92%	93%	94%	> 100 mg/kg	< 20%	16%	< 20%	20%	< 20%	20%	< 20%	35%		
O=[N+]([O-])c1ccc(C(CNc2ncnc3c2ncn3[C@@H]2O[C@H](CO)[C@@H](O)[C@H]2O)c2ccc([N+](=O)[O-])cc2)cc1 [Example 20]				> 100 mg/kg									559 nM	229 nM
